Source: PubChem BioAssay AID1963964 (Molecular Pharmacology Branch, DTP, NCI, 2024)

Tested on: 997726-040-R-J2-PDC tumor spheroids, viability
Assay: Anticancer human tumor 997726-040-R-J2-PDC patient-derived squamous cell lung carcinoma cell line growth inhibition [PI3K]
Details: spheroids with HUVEC and MSC; for IC50: curve of first compound; for viability, T/C: stronger effect = lower value
How it was run: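 Agents were dosed from a top concentration near clinical Cmax (otherwise 10 microM) in half-log decrements, alone or combined with PI3K inhibitors. The spheroids contain tumor cells plus endothelial (HUVEC) and MSC stroma; viability is measured.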
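Further: spheroids exposed to compounds for seven days before readout.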

With `CNC(=O)c1ccc(N2C(=S)N(c3ccc(C#N)c(C(F)(F)F)c3)C(=O)C2(C)C)cc1F` + Cc1nc(NC(=O)N2CCCC2C(N)=O)sc1-c1ccnc(C(C)(C)C(F)(F)F)c1 the IC50 (second compound 0.0316 µM) was greater than 10000 nM, the IC50 (second compound 0.1 µM) was greater than 10000 nM and the IC50 (second compound 0.316 µM) was greater than 10000 nM. It also gave an IC50 (second compound 1 µM) of less than 31.6 nM, an IC50 (second compound 3.16 µM) of less than 31.6 nM and an IC50 (second compound 10 µM) of less than 31.6 nM. It also gave a viability, T/C (second compound 0.0316 µM, first compound 0.0316 µM) of 74.4%, a viability, T/C (second compound 0.0316 µM, first compound 0.1 µM) of 82.2% and a viability, T/C (second compound 0.0316 µM, first compound 0.316 µM) of 80.9%. The viability, T/C (second compound 0.0316 µM, first compound 1 µM) was 89.3%, the viability, T/C (second compound 0.0316 µM, first compound 3.16 µM) was 81.9% and the viability, T/C (second compound 0.0316 µM, first compound 10 µM) was 78.8%. For the same molecule, the viability, T/C (second compound 0.1 µM, first compound 0.0316 µM) was 74.5%, the viability, T/C (second compound 0.1 µM, first compound 0.1 µM) was 81.3% and the viability, T/C (second compound 0.1 µM, first compound 0.316 µM) was 73.5%. It also gave a viability, T/C (second compound 0.1 µM, first compound 1 µM) of 69.7%, a viability, T/C (second compound 0.1 µM, first compound 3.16 µM) of 70.5% and a viability, T/C (second compound 0.1 µM, first compound 10 µM) of 71.1%. It also gave a viability, T/C (second compound 0.316 µM, first compound 0.0316 µM) of 51.3%, a viability, T/C (second compound 0.316 µM, first compound 0.1 µM) of 65% and a viability, T/C (second compound 0.316 µM, first compound 0.316 µM) of 54.5%. It also gave a viability, T/C (second compound 0.316 µM, first compound 1 µM) of 57.9%, a viability, T/C (second compound 0.316 µM, first compound 3.16 µM) of 48.9% and a viability, T/C (second compound 0.316 µM, first compound 10 µM) of 54.6%. For the same molecule, the viability, T/C (second compound 1 µM, first compound 0.0316 µM) was 41.7%, the viability, T/C (second compound 1 µM, first compound 0.1 µM) was 44.2% and the viability, T/C (second compound 1 µM, first compound 0.316 µM) was 37.5%. For the same molecule, the viability, T/C (second compound 1 µM, first compound 1 µM) was 38.2%, the viability, T/C (second compound 1 µM, first compound 3.16 µM) was 39.9% and the viability, T/C (second compound 1 µM, first compound 10 µM) was 39%. For the same molecule, the viability, T/C (second compound 3.16 µM, first compound 0.0316 µM) was 32.7%, the viability, T/C (second compound 3.16 µM, first compound 0.1 µM) was 29.3% and the viability, T/C (second compound 3.16 µM, first compound 0.316 µM) was 26.9%. It also gave a viability, T/C (second compound 3.16 µM, first compound 1 µM) of 29.5%, a viability, T/C (second compound 3.16 µM, first compound 3.16 µM) of 30.4% and a viability, T/C (second compound 3.16 µM, first compound 10 µM) of 25.5%. For the same molecule, the viability, T/C (second compound 10 µM, first compound 0.0316 µM) was 16.1%, the viability, T/C (second compound 10 µM, first compound 0.1 µM) was 16.9% and the viability, T/C (second compound 10 µM, first compound 0.316 µM) was 12.6%. It also gave a viability, T/C (second compound 10 µM, first compound 1 µM) of 13.2%, a viability, T/C (second compound 10 µM, first compound 3.16 µM) of 11.9% and a viability, T/C (second compound 10 µM, first compound 10 µM) of 9.07%.
For `Cn1cnc2c(F)c(Nc3ccc(Br)cc3Cl)c(C(=O)NOCCO)cc21` + Cc1nc(NC(=O)N2CCCC2C(N)=O)sc1-c1ccnc(C(C)(C)C(F)(F)F)c1, the IC50 (second compound 0.0316 µM) was 129 nM, the IC50 (second compound 0.1 µM) was 66.2 nM and the IC50 (second compound 0.316 µM) was less than 9.49 nM. The IC50 (second compound 1 µM) was less than 9.49 nM, the IC50 (second compound 3.16 µM) was less than 9.49 nM and the IC50 (second compound 10 µM) was less than 9.49 nM. It also gave a viability, T/C (second compound 0.0316 µM, first compound 0.00949 µM) of 74.8%, a viability, T/C (second compound 0.0316 µM, first compound 0.03 µM) of 58.5% and a viability, T/C (second compound 0.0316 µM, first compound 0.0949 µM) of 53.5%. It also gave a viability, T/C (second compound 0.0316 µM, first compound 0.3 µM) of 41.7%, a viability, T/C (second compound 0.0316 µM, first compound 0.949 µM) of 45.9% and a viability, T/C (second compound 0.0316 µM, first compound 3 µM) of 34.1%. It also gave a viability, T/C (second compound 0.1 µM, first compound 0.00949 µM) of 67.6%, a viability, T/C (second compound 0.1 µM, first compound 0.03 µM) of 56.1% and a viability, T/C (second compound 0.1 µM, first compound 0.0949 µM) of 44.9%. For the same molecule, the viability, T/C (second compound 0.1 µM, first compound 0.3 µM) was 40.5%, the viability, T/C (second compound 0.1 µM, first compound 0.949 µM) was 38.7% and the viability, T/C (second compound 0.1 µM, first compound 3 µM) was 28.5%. The viability, T/C (second compound 0.316 µM, first compound 0.00949 µM) was 51.1%, the viability, T/C (second compound 0.316 µM, first compound 0.03 µM) was 40.6% and the viability, T/C (second compound 0.316 µM, first compound 0.0949 µM) was 35.7%. For the same molecule, the viability, T/C (second compound 0.316 µM, first compound 0.3 µM) was 34.3%, the viability, T/C (second compound 0.316 µM, first compound 0.949 µM) was 28.4% and the viability, T/C (second compound 0.316 µM, first compound 3 µM) was 22.2%. It also gave a viability, T/C (second compound 1 µM, first compound 0.00949 µM) of 36.7%, a viability, T/C (second compound 1 µM, first compound 0.03 µM) of 32.6% and a viability, T/C (second compound 1 µM, first compound 0.0949 µM) of 29.4%. For the same molecule, the viability, T/C (second compound 1 µM, first compound 0.3 µM) was 25.3%, the viability, T/C (second compound 1 µM, first compound 0.949 µM) was 22.7% and the viability, T/C (second compound 1 µM, first compound 3 µM) was 21.2%. It also gave a viability, T/C (second compound 3.16 µM, first compound 0.00949 µM) of 24.8%, a viability, T/C (second compound 3.16 µM, first compound 0.03 µM) of 21.2% and a viability, T/C (second compound 3.16 µM, first compound 0.0949 µM) of 22.2%. For the same molecule, the viability, T/C (second compound 3.16 µM, first compound 0.3 µM) was 20.9%, the viability, T/C (second compound 3.16 µM, first compound 0.949 µM) was 20.7% and the viability, T/C (second compound 3.16 µM, first compound 3 µM) was 14.3%. The viability, T/C (second compound 10 µM, first compound 0.00949 µM) was 17.8%, the viability, T/C (second compound 10 µM, first compound 0.03 µM) was 17.2% and the viability, T/C (second compound 10 µM, first compound 0.0949 µM) was 15.5%. For the same molecule, the viability, T/C (second compound 10 µM, first compound 0.3 µM) was 15.3%, the viability, T/C (second compound 10 µM, first compound 0.949 µM) was 12.2% and the viability, T/C (second compound 10 µM, first compound 3 µM) was 7.26%.
